5 molecules from US5747235A, “Silver halide light sensitive emulsion layer having enhanced photographic sensitivity” (Eastman Kodak Company, priority 1996, dated 1998) can be followed below.

Experiment [1] is described as follows: Example 1: photographic speed and fog, 365 nm exposure, emulsion T-1. The note with it: undyed; for S365: control=100. How it is done:
This chemically sensitized emulsion was then used to prepare the experimental coating variations indicated in Table I. All of the experimental coating variations in Table I contained the hydroxybenzene 2,4-disulfocatechol (HB3) at a concentration of 13 mmole/mole Ag, added to the melt before the addition of any further addenda. The fragmentable electron donor compounds as indicated in Table I were added from an aqueous potassium bromide solution, or from a methanol solution, before additional water, gelatin, and surfactant were added to the emulsion melts.
(§1) For photographic evaluation, each of the coating strips was exposed for 0.1 sec to a 365 nm emission line of a Hg lamp filtered through a Kodak Wratten filter number 18A and a step wedge ranging in density from 0 to 4 density units in 0.2 density steps. The exposed film strips were developed for 6 min in Kodak Rapid X-ray Developer (KRX). S365, relative sensitivity at 365 nm, was evaluated at a density of 0.2 units above fog.

Experiment [2] is described as follows: Example 7: photographic speed and fog with/without HB3, 365 nm exposure, emulsion T-2. How it is done: as §1
An AgBrI tabular silver halide emulsion (Emulsion T-2) was prepared containing 4.05% total I distributed such that the central portion of the emulsion grains contained 1.5% I and the perimeter area contained substantially higher I, as described by Chang et. al., U.S. Pat. No. 5,314,793. […] This emulsion was precipitated using deionized gelatin. The emulsion was sulfur sensitized by adding 8.5×10^-6 mole 1,3-dicarboxymethyl-1,3-dimethyl-2-thiourea /mole Ag at 40° C.; the temperature was then raised to 60° C. at a rate of 5° C./3 min and the emulsions held for 20 min before cooling to 40° C. The chemically sensitized emulsion was then used to prepare coatings containing the fragmentable two-electron donor compounds. […] Where present, the blue sensitizing dye D-I or the red sensitizing dye D-II were added from methanol solution to the emulsion at 40° C. after the chemical sensitization and disulfocatechol addition. The fragmentable two-electron donor compounds were added to the emulsion at 40° C. and the coatings were prepared and tested as described in Example 1, except that the additional gelatin used to prepare the coatings described in Table III was deionized gelatin.
Where present the blue sensitizing dye D-I or the red sensitizing dye D-II were added from methanol solution to the emulsion at 40° C. after the chemical sensitization and disulfocatechol addition. The fragmentable two-electron donating compounds were then added to the emulsion and coatings prepared as described in Example 1, except that the additional gelatin used to prepare the coatings described in Table VII was deionized gelatin. The coatings were tested for their response to a 365 nm exposure as described in Example 1.

Experiment [3] is described as follows: Example 8: photographic speed and fog, 365 nm exposure, cubic emulsion C-1. Also noted: Fog: unit not given here. On the procedure:
as §1
(§2) Two cubic emulsions with uniform halide composition were precipitated using deionized gelatin. Emulsion C-1 was a AgErI emulsion with a 3% I content and a cubic edge length of 0.47 μm and emulsion C-2 was an AgBr emulsion with a cubic edge length of 0.52 μm. The emulsions were sulfur sensitized by adding 1,3-dicarboxymethyl-1,3-dimethyl-2-thiourea at 40° C.; the temperature was then raised to 60° C. at a rate of 5° C./3 min and the emulsions held for 20 min before cooling to 40° C. The amounts of the sulfur sensitizing compound used were 1.0×10^-5 mole/mole Ag for emulsion C-1, and 6.0×10^-6mole/mole Ag for emulsion C-2. These experimental coating variations contained the hydroxybenzene, 2,4-disulfocatechcol (HB3) at a concentration of 13 mmole/mole Ag, added to the melt before the addition of any further compounds. Some of the variations were then dyed with the sensitizing dye D-II, added from methanol solution. The fragmentable electron donor compounds were then added to the emulsion melts at 40° C. and coatings were prepared and tested as described in Example 1 except that the additional gelatin used to prepare the coatings described in Table VIII was deionized gelatin. Also, the dyed coatings were tested for their response to a spectral exposure as described in Example 3.

The nature of experiment [4]: Example 8: photographic speed and fog, 365 nm exposure, cubic emulsion C-2. Also noted: Fog: unit not given here. How it is done: as §1, §2
The nature of experiment [5]: Example 8: spectral sensitivity, cubic emulsion C-1. The note with it: dye II 0.44 x10^-3, dyed control=100. On the procedure:
(§3) Additional testing was carried out to determine the response of the coatings described in Table III to a spectral exposure. Each of the coating strips was exposed for 0.1 sec on a wedge spectrographic instrument that covers the wavelength range from 400 to 750 nm. The instrument contains a tungsten light source and a step tablet ranging in density from 0 to 3 density units in 0.3 density steps. After developing exposed strips for 6 min in Kodak Rapid X-ray Developer (KRX), speed was read at 10 nm wavelength intervals at a density of 0.3 above fog. Correction for the instrument's variation in spectral irradiance with wavelength was done with a computer and a plot of log sensitivity vs. wavelength was generated. For this exposure, for each dye used, the relative sensitivity was set equal to 100 for the control coating with no fragmentable two-electron donor compound added.
as §2

The nature of experiment [6]: Example 6: spectral sensitivity, wedge spectrographic exposure, emulsion T-2. The note with it: dye II 0.86 x10^-3, dyed control=100. How it is done:
as §3
The chemically sensitized AgErI tabular emulsion T-2 as described in Example 3 was used to prepare the experimental coating variations listed in Table VI, comparing fragmentable electron donating compounds PMT-1 and PMT-2 that contain a phenylmercaptotetrazole as the silver halide adsorbing group. For some of the experimental variations listed in Table VI the red sensitizing dye D-II was added from methanol solution to the emulsion at 40° C. after the chemical sensitization. The fragmentable electron donating compounds were then added to the emulsion and coatings prepared and tested for sensitivity at 365 nm and for spectral sensitivity as described in Example 3.

Setting [7] is: 0.007 x10^-3 mole/mole Ag, HB3 0, dye II 0.86 x10^-3.
Setting [8] is: 0.07 x10^-3 mole/mole Ag, HB3 0, dye I 0.91 x10^-3.
[9] abbreviates: 0.16 x10^-3 mol/mol Ag, no dye, control=100.
Where [10] appears, read: 0.50 x10^-3 mol/mol Ag, no dye, control=100.

Turning to `CCSCCN(c1ccc(C)cc1)[C@@H](C)C(=O)[O-].[Na+]` [Compound S-3, N-(4-Methylphenyl)-N-(2-ethylthio-ethyl)alanine sodium salt], the Fog in experiment [1] (0.011 x10^-3 mole/mole Ag) was found to be 0.05; in experiment [1] (0.022 x10^-3 mole/mole Ag), 0.08; in experiment [1] (0.044 x10^-3 mole/mole Ag), 0.22. Moreover, the results for the S365 in experiment [1] (0.011 x10^-3 mole/mole Ag), in experiment [1] (0.022 x10^-3 mole/mole Ag) and in experiment [1] (0.044 x10^-3 mole/mole Ag) were 118, 132 and 129, respectively.

On to `CCSCCN(c1ccc(C)cc1)C(CC(=O)O)C(=O)O` (centres unmarked) [Compound S-8], for which the Fog is listed as 0.08 in experiment [1] (0.022 x10^-3 mole/mole Ag); 0.13 in experiment [1] (0.07 x10^-3 mole/mole Ag); 0.21 in experiment [2] (setting [7]); 0.15 in experiment [2] (0.007 x10^-3 mole/mole Ag, HB3 13 x10^-3, dye II 0.86 x10^-3); 0.12 in experiment [2] (setting [8]); 0.16 in experiment [2] (0.07 x10^-3 mole/mole Ag, HB3 0, no dye). Also, the Fog was 0.12 in experiment [2] (0.07 x10^-3 mole/mole Ag, HB3 13 x10^-3, dye I 0.91 x10^-3) and 0.13 in experiment [2] (0.07 x10^-3 mole/mole Ag, HB3 13 x10^-3, no dye). In addition, the S365 in experiment [1] (0.022 x10^-3 mole/mole Ag) is given as 126; in experiment [1] (0.07 x10^-3 mole/mole Ag), 135; in experiment [2] (setting [7]) it was 110; in experiment [2] (0.007 x10^-3 mole/mole Ag, HB3 13 x10^-3, dye II 0.86 x10^-3, dyed control 68), 112; in experiment [2] (setting [8]), 155; in experiment [2] (0.07 x10^-3 mole/mole Ag, HB3 0, no dye, control=100), 159. Moreover, the S365 in experiment [2] (0.07 x10^-3 mole/mole Ag, HB3 13 x10^-3, dye I 0.91 x10^-3, dyed control 105) is reported as 120; in experiment [2] (0.07 x10^-3 mole/mole Ag, HB3 13 x10^-3, no dye, control=100) it was 162.

In the case of `CCSCCN(c1ccc(C(=O)O)cc1)C(C)C(=O)O` (centres unmarked) [Compound S-11], the Fog in experiment [3] (0.05 x10^-3 mol/mol Ag, dye II 0.44 x10^-3) stood at 0.14; in experiment [3] (0.16 x10^-3 mol/mol Ag, dye II 0.44 x10^-3), 0.16; in experiment [3] (0.16 x10^-3 mol/mol Ag, no dye) it was 0.07; in experiment [3] (0.50 x10^-3 mol/mol Ag, no dye), 0.07; in experiment [4] (0.05 x10^-3 mol/mol Ag, dye II 0.40 x10^-3), 0.10; in experiment [4] (0.16 x10^-3 mol/mol Ag, dye II 0.40 x10^-3), 0.14. Besides, the Fog in experiment [4] (0.16 x10^-3 mol/mol Ag, no dye) was 0.06; in experiment [4] (0.50 x10^-3 mol/mol Ag, no dye), 0.06. The S365 in experiment [3] (0.05 x10^-3 mol/mol Ag, dye II 0.44 x10^-3, dyed control 105) is 162; in experiment [3] (0.16 x10^-3 mol/mol Ag, dye II 0.44 x10^-3, dyed control 105), 186; in experiment [3] (setting [9]) it was 219; in experiment [3] (setting [10]) it was 234; in experiment [4] (0.05 x10^-3 mol/mol Ag, dye II 0.40 x10^-3, dyed control 76), 145; in experiment [4] (0.16 x10^-3 mol/mol Ag, dye II 0.40 x10^-3, dyed control 76), 166. Besides, the S365 in experiment [4] (setting [9]) stood at 200; in experiment [4] (setting [10]), 209. Moreover, the “sensitivity increase” value in experiment [3] (both undyed cubic emulsions (C-1 and C-2)) is on record as “approximately a factor of two”. Further, the Sλ in experiment [5] (0.05 x10^-3 mol/mol Ag) is 151; in experiment [5] (0.16 x10^-3 mol/mol Ag), 178.

For `Cc1ccc(N(CCC(=O)Nc2cccc(-n3nnnc3S)c2)C(C)C(=O)O)cc1` (centres unmarked) [PMT-1], the Sλ in experiment [6] (0.0006 x10^-3 mole/mole Ag) is recorded as 115; in experiment [6] (0.0017 x10^-3 mole/mole Ag), 145; in experiment [6] (0.0055 x10^-3 mole/mole Ag) it was 126.

Consider `CC(C(=O)O)N(CCC(=O)Nc1cccc(-n2nnnc2S)c1)c1ccccc1` (centres unmarked) [PMT-2], for which the Sλ in experiment [6] (0.0005 x10^-3 mole/mole Ag) is given as 123; in experiment [6] (0.0016 x10^-3 mole/mole Ag) it was 145; in experiment [6] (0.005 x10^-3 mole/mole Ag), 151.
